# Measurements as given in patent US10899769B2, “Imidazopiperazinone inhibitors of transcription activating proteins” (Board of Regents, The University of Texas System, priority 2018, dated 2021).
# How the values were obtained:
# [1] = target: GST-CBP(1081-1197) bromodomain (Homo sapiens (Human), UniProt Q92793); test: CBP AlphaScreen Assay; details: binding to biotin-H4(1-21) Ac-K5/8/12/16
# In short: (§1)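 AlphaScreen binding of GST-bromodomain to biotin-H4(1-21) Ac-K5/8/12/16: 5 nM CBP with 20 nM peptide, or 2.5 nM BRD4 with 10 nM peptide, in 50 mM HEPES 7.5, […], 1 mM TCEP, 0.003% Tween-20. Compound preincubated 30 min, then beads 2 h, room temperature. IC50 from variable-slope fit.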
# BRD4(49-170) bromodomain = BRD4(49-170) bromodomain (Homo sapiens (Human), UniProt O60885); test: BRD4 AlphaScreen Assay; details: binding to biotin-H4(1-21) Ac-K5/8/12/16
# In short: as §1
# Chain of GST-CBP(1081-1197) bromodomain (Q92793 1081-1197): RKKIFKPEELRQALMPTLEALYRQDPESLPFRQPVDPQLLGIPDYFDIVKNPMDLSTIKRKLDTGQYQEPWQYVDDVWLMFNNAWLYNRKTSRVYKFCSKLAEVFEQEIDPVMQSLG
IC50 [1] [nM],IC50 (BRD4(49-170) bromodomain) [nM],SMILES
31,10600,"CN1Cc2c(-c3cccc4nc(-c5cnn(C)c5)c(C(F)(F)F)cc34)nc(C3CCOCC3)n2CC1=O [Example 95, 7-methyl-1-(2-(1-methyl-1H-pyrazol-4-yl)-3-(trifluoromethyl)quinolin-5-yl)-3-(tetrahydro-2H-pyran-4-yl)-7,8-dihydroimidazo[1,5-a] pyrazin-6(5H)-one]"
6,1440,"CC1C(=O)N(C)Cc2c(-c3cc4c(-c5cnn(C)c5)nn(C)c4cc3F)nc(C3CCOCC3)n21 (centres unmarked) [Example 43, 1-(6-Fluoro-1-methyl-3-(1-methyl-1H-pyrazol-4-yl)-1H-indazol-5-yl)-5,7-dimethyl-3-(tetrahydro-2H-pyran-4-yl)-7,8-dihydroimidazo[1,5-a]pyrazin-6(5H)-one 2,2,2-trifluoroacetate]"
1070,2610,"CC1C(=O)N(C)Cc2c(-c3ccn4cncc4c3)nc(C3CC3)n21 (centres unmarked) [Example 57, 3-cyclopropyl-1-(imidazo[1,5-a]pyridin-7-yl)-5,7-dimethyl-7,8-dihydroimidazo[1,5-a] pyrazin-6(5H)-one]"
34,2890,"CC1C(=O)N(C)Cc2c(-c3cccc4nc(-c5cnn(C)c5)c(C(F)F)cc34)nc(C3CCN(CC(F)(F)F)CC3)n21 (centres unmarked) [Example 77, 1-(3-(difluoromethyl)-2-(1-methyl-1H-pyrazol-4-yl)quinolin-5-yl)-5,7-dimethyl-3-(1-(2,2,2-trifluoroethyl)piperidin-4-yl)-7,8-dihydroimidazo [1,5-a] pyrazin-6(5H)-one]"
13,6160,"CC1C(=O)N(C)Cc2c(-c3cccc4nc(-c5cnn(C)c5)c(C(F)F)cc34)nc(C3CN(CC(F)(F)F)C3)n21 (centres unmarked) [Example 21, 1-(3-(Difluoromethyl)-2-(1-methyl-1H-pyrazol-4-yl)quinolin-5-yl)-5,7-dimethyl-3-(1-(2,2,2-trifluoroethyl)azetidin-3-yl)-7,8-dihydroimidazo[1,5-a]pyrazin-6(5H)-one]"
1,76,"Cc1nn(C)cc1-c1cc2cccc(-c3nc(C4CC4)n4c3CN(C)C(=O)C4C)c2cn1 (centres unmarked) [Example 63, 3-cyclopropyl-1-(3-(1,3-dimethyl-1H-pyrazol-4-yl)isoquinolin-8-yl)-5,7-dimethyl-7,8-dihydroimidazo[1,5-a] pyrazin-6(5H)-one]"
1,112,"CC1C(=O)N(C)Cc2c(-c3cccc4nc(-c5noc(=O)[nH]5)c(C(F)F)cc34)nc(C3CC3)n21 (single isomer, unassigned) [Example 45a, 3-(5-(3-Cyclopropyl-5,7-dimethyl-6-oxo-5,6,7,8-tetrahydroimidazo[1,5-a]pyrazin-1-yl)-3-(difluoromethyl)quinolin-2-yl)-1,2,4-oxadiazol-5(4H)-one]"
3,319,"Cc1ncn(-c2nc3cccc(-c4nc(C5CC5)n5c4CN(C)C(=O)C5C)c3cc2C(F)F)n1 (centres unmarked) [Example 67, 3-cyclopropyl-1-(3-(difluoromethyl)-2-(3-methyl-1H-1,2,4-triazol-1-yl)quinolin-5-yl)-5,7-dimethyl-7,8-dihydroimidazo[1,5-a] pyrazin-6(5H)-one]"
6,17600,"CCN1Cc2c(N3CCCc4cc(-c5cnn(C)c5)c(C(F)F)cc43)nc(C3CC3)n2CC1=O [Example 4, 3-Cyclopropyl-1-(7-(difluoromethyl)-6-(1-methyl-1H-pyrazol-4-yl)-3,4-dihydroquinolin-1(2H)-yl)-7-ethyl-7,8-dihydroimidazo[1,5-a]pyrazin-6(5H)-one]"
5,163,"Cc1ncc(-c2nc3cccc(-c4nc(C5CC5)n5c4CN(C)C(=O)C5C)c3cc2C(F)F)s1 (centres unmarked) [Example 68, 3-cyclopropyl-1-(3-(difluoromethyl)-2-(2-methylthiazol-5-yl)quinolin-5-yl)-5,7-dimethyl-7,8-dihydroimidazo[1,5-a] pyrazin-6(5H)-one]"
4,868,"Cc1ncn(-c2cc3cccc(-c4nc(C5CC5)n5c4CN(C)C(=O)C5C)c3cn2)n1 (centres unmarked) [Example 71, 3-cyclopropyl-5,7-dimethyl-1-(3-(3-methyl-1H-1,2,4-triazol-1-yl)isoquinolin-8-yl)-7,8-dihydroimidazo[1,5-a] pyrazin-6(5H)-one]"
153,9630,"CC1C(=O)N(C)Cc2c(-c3cccc4nc(-c5cnn(C)c5)c(C(F)F)cc34)nc(C3CCN(CCF)CC3)n21 (centres unmarked) [Example 81, 1-(3-(difluoromethyl)-2-(1-methyl-1H-pyrazol-4-yl)quinolin-5-yl)-3-(1-(2-fluoroethyl)piperidin-4-yl)-5,7-dimethyl-7,8-dihydroimidazo[1,5-a] pyrazin-6(5H)-one]"
63,25000,"CN1Cc2c(-c3cccc4nc(-c5cnn(C)c5)c(C#N)cc34)nc(C3CCOCC3)n2CC1=O [Example 92, 2-(1-methyl-1H-pyrazol-4-yl)-5-(7-methyl-6-oxo-3-(tetrahydro-2H-pyran-4-yl)-5,6,7,8-tetrahydroimidazo[1,5-a]pyrazin-1-yl)quinoline-3-carbonitrile]"
94,24600,"COCCN1CC(c2nc(-c3cccc4nc(-c5cnn(C)c5)c(C(F)F)cc34)c3n2C(C)C(=O)N(C)C3)C1 (centres unmarked) [Example 23, 1-(3-(Difluoromethyl)-2-(1-methyl-1H-pyrazol-4-yl)quinolin-5-yl)-3-(1-(2-methoxyethyl)azetidin-3-yl)-5,7-dimethyl-7,8-dihydroimidazo[1,5-a]pyrazin-6(5H)-one]"
2,341,"CC1C(=O)N(C)Cc2c(-c3cccc4cc(-c5cnn(C)c5)ncc34)nc(C3CCOCC3)n21 (centres unmarked) [Example 109, 5,7-dimethyl-1-(3-(1-methyl-1H-pyrazol-4-yl)isoquinolin-8-yl)-3-(tetrahydro-2H-pyran-4-yl)-7,8-dihydroimidazo[1,5-a] pyrazin-6(5H)-one]"
18,17600,"CCN1Cc2c(N3CCCc4cc(-c5cnn(C)c5)c(C(F)F)cc43)nc(C3CC3)n2CC1=O [Example 48, 3-cyclopropyl-1-(7-(difluoromethyl)-6-(1-methyl-1H-pyrazol-4-yl)-3,4-dihydroquinolin-1(2H)-yl)-7-ethyl-7,8-dihydroimidazo[1,5-a] pyrazin-6(5H)-one]"
39,2430,"CNC(=O)N1CCC(c2nc(-c3cccc4nc(-c5cnn(C)c5)c(C(F)F)cc34)c3n2C(C)C(=O)N(C)C3)CC1 (centres unmarked) [Example 79, 4-(1-(3-(difluoromethyl)-2-(1-methyl-1H-pyrazol-4-yl)quinolin-5-yl)-5,7-dimethyl-6-oxo-5,6,7,8-tetrahydroimidazo[1,5-a]pyrazin-3-yl)-N-methylpiperidine-1-carboxamide]"
38,2690,"Cc1ncc(-c2cc3cccc(-c4nc(C5CCOCC5)n5c4CN(C)C(=O)C5C)c3cn2)s1 (single isomer, unassigned) [Example 31a, 5,7-Dimethyl-1-(3-(2-methylthiazol-5-yl)isoquinolin-8-yl)-3-(tetrahydro-2H-pyran-4-yl)-7,8-dihydroimidazo[1,5-a]pyrazin-6(5H)-one]"
424,25000,"CC1C(=O)N(C)Cc2c(-c3cccc4nc(-c5cnn(C)c5)c(C#N)cc34)nc(C3CC3)n21 (single isomer, unassigned) [Example 56a, 5-(3-cyclopropyl-5,7-dimethyl-6-oxo-5,6,7,8-tetrahydroimidazo[1,5-a]pyrazin-1-yl)-2-(1-methyl-1H-pyrazol-4-yl)quinoline-3-carbonitrile]"
50,17500,"CC1C(=O)N(C)Cc2c(-c3cccc4nc(-c5cnn(C)c5)c(C(F)F)cc34)nc(C3CNC3)n21 (centres unmarked) [Example 18, 3-(Azetidin-3-yl)-1-(3-(difluoromethyl)-2-(1-methyl-1H-pyrazol-4-yl)quinolin-5-yl)-5,7-dimethyl-7,8-dihydroimidazo[1,5-a]pyrazin-6(5H)-one]"
145,≥ 25000,"CN1Cc2c(-c3cccc4cc(N5CCOCC5)ncc34)nc(C3CCOCC3)n2CC1=O [Example 94, 7-methyl-1-(3-morpholinoisoquinolin-8-yl)-3-(tetrahydro-2H-pyran-4-yl)-7,8-dihydroimidazo[1,5-a] pyrazin-6(5H)-one]"
2670,25000,"C[C@H]1C(=O)N(C)Cc2c(-c3cccc4nc(-c5cnn(C)c5)c(C(F)F)cc34)nc(C3CCOCC3)n21 [Example 5b, (S)-1-(3-(difluoromethyl)-2-(1-methyl-1H-pyrazol-4-yl)quinolin-5-yl)-5,7-dimethyl-3-(tetrahydro-2H-pyran-4-yl)-7,8-dihydroimidazo[1,5-a]pyrazin-6(5H)-one]"
94,487,"CC1C(=O)N(C)Cc2c(-c3ccc4sccc4c3)nc(C3CC3)n21 (centres unmarked) [Example 52, 1-(benzo[b]thiophen-5-yl)-3-cyclopropyl-5,7-dimethyl-7,8-dihydroimidazo[1,5-a] pyrazin-6(5H)-one]"
2,1460,"CC1C(=O)N(C)Cc2c(-c3cccc4cc(-c5nsc(=O)[nH]5)ncc34)nc(C3CC3)n21 (centres unmarked) [Example 47, 3-(8-(3-Cyclopropyl-5,7-dimethyl-6-oxo-5,6,7,8-tetrahydroimidazo[1,5-a]pyrazin-1-yl)isoquinolin-3-yl)-1,2,4-thiadiazol-5(4H)-one]"
27,3480,"Cc1ccc2cc(-c3ccn(C)n3)ncc2c1-c1nc(C2CCOCC2)n2c1CN(C)C(=O)C2C (centres unmarked) [Example 105, 5,7-dimethyl-1-(7-methyl-3-(1-methyl-1H-pyrazol-3-yl)isoquinolin-8-yl)-3-(tetrahydro-2H-pyran-4-yl)-7,8-dihydroimidazo[1,5-a] pyrazin-6(5H)-one]"
